US8143414B2, “Hepatitis C virus inhibitors” (Bristol-Myers Squibb Company, priority 2009, dated 2012)

Test system: HCV 1b genotype
Assay: HCV replicon assay, 1b genotype
Type: cell-based
Details: Hepatitis C virus; HCV 1b genotype replicon; EC50 = effective 50% inhibitory concentration
Experimental: An HCV Replion assay was utilized in the present disclosure, and was prepared, conducted and validated as described in commonly owned PCT/US2006/022197 and in O'Boyle et. al. Antimicrob Agents Chemother. 2005 April; 49(4):1346-53. Assay methods incorporating luciferase reporters have also been used as described (Apath.com).
HCV-neo replicon cells and replicon cells containing mutations in the NS5A region were used to test the currently described family of compounds. The compounds were determined to have more than 10-fold less inhibitory activity on cells containing mutations than wild-type cells. Thus, the compounds of the present disclosure can be effective in inhibiting the function of the HCV NS5A protein and are understood to be as effective in combinations as previously described in application PCT/US2006/022197 and commonly owned WO/04014852. Further, the compounds of the present disclosure can be effective against the HCV 1b genotype. It should also be understood that the compounds of the present disclosure can inhibit multiple genotypes of HCV. […] In one embodiment, compounds of the present disclosure are inhibitory versus 1a, 1b, 2a, 2b, 3a, 4a, and 5a genotypes.

| SMILES | EC50 [pM] |
| --- | --- |
| COC(=O)N[C@@H](C(=O)N1CCC[C@H]1c1ncc(-c2nc3cc4sc(-c5cnc([C@@H]6CCCN6C(=O)[C@H](NC(=O)OC)c6ccccc6)[nH]5)nc4cc3s2)[nH]1)c1ccccc1 [Example 2, Dimethyl ([1,3]thiazolo[5,4-f][1,3]benzothiazole-2,6-diylbis(1H-imidazole-4,2-diyl(2S)-2,1-pyrrolidinediyl((1R)-2-oxo-1-phenyl-2,1-ethanediyl)))biscarbamate, bistrifluoracetate] | 25 |
| COC(=O)N[C@@H](C(=O)N1CCC[C@H]1c1ncc(-c2nc3cc4sc(-c5cnc([C@@H]6CCCN6C(=O)[C@H](NC(=O)OC)C(C)C)[nH]5)nc4cc3s2)[nH]1)C(C)C [Example 3, Methyl ((1R)-1-(((2S)-2-(4-(6-(2-((2S)-1-((2R)-2-((methoxycarbonyl)amino)-3-methylbutanoyl)-2-pyrrolidinyl)-1H-imidazol-4-yl)[1,3]thiazolo[5,4-f][1,3]benzothiazol-2-yl)-1H-imidazol-2-yl)-1-pyrrolidinyl)carbonyl)-2-methylpropyl)carbamate, bistrifluoracetate] | 350000 |
| COC(=O)N[C@H](C(=O)N1CCC[C@H]1c1ncc(-c2nc3cc4sc(-c5cnc([C@@H]6CCCN6C(=O)[C@@H](NC(=O)OC)C(C)C)[nH]5)nc4cc3s2)[nH]1)C(C)C [Example 1, Methyl ((1S)-1-(((2S)-2-(4-(6-(2-((28)-1-((2S)-2-((methoxycarbonyl)amino)-3-methylbutanoyl)-2-pyrrolidinyl)-1H-imidazol-4-yl)[1,3]thiazolo[5,4-f][1,3]benzothiazol-2-yl)-1H-imidazol-2-yl)-1-pyrrolidinyl)carbonyl)-2-methylpropyl)carbamate, bistrifluoracetate] | 34 |
